# Data from article PMC12523804, “Evaluation of molecular mechanisms of (Z)-3-(pentadec-10′-enyl)-catechol (litreol) and synthetic derivatives as inhibitors of human leukotriene biosynthesis” (Redox Biology, 2025).
# Read-outs that look alike come from different tables or passages of the source.
# Experiments:
# [1] = system: human PMNLs; experiment: Lactate dehydrogenase release (LDH assay) in PMNL; type: cell-based
# Protocol: After treatment of PMNL, supernatants were centrifuged (600g × 5 min, 4 °C), and 100 μL of supernatant were mixed with 200 μL LDH reaction buffer (75 mM Tris/HCl, pH 7.4, 0.3 mM NADH, 1.5 mM Na-pyruvate) in a 96-well plate. The decrease of NADH was measured immediately by absorbance at 340 nm in a kinetic mode (every 7 s for 20 min; Multiskan Spectrum). As a positive control for maximal LDH release, cells treated with 1 % Triton X-100 were included in each experiment, while untreated cells and vehicle (DMSO) served as negative controls.
# [2] = target: T1, 5-LO (Homo sapiens, UniProt P09917); experiment: 5-LO product formation in intact human PMNL (neutrophils); type: cell-based; set-up: endogenous in cells; host or cells: human PMNL from peripheral blood of healthy volunteers; conditions: intact human PMNL
# T1 sequence (P09917 1-674): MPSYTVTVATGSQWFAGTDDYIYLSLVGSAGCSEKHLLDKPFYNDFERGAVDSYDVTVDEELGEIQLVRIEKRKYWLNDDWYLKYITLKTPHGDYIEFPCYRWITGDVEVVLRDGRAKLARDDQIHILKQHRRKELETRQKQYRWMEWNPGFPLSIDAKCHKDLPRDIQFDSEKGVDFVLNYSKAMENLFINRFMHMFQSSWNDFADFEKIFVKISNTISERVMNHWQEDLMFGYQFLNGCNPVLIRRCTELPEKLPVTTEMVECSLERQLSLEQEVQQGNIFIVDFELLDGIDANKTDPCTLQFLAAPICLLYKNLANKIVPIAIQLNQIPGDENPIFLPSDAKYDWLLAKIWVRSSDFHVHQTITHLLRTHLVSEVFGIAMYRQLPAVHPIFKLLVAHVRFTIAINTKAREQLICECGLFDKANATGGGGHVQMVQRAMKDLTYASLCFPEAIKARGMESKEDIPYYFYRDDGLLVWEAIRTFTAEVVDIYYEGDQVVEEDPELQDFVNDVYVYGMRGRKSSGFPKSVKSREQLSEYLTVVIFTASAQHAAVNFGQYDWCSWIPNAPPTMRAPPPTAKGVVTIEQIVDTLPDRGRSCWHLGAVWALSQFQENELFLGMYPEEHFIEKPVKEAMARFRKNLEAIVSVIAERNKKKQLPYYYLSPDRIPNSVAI
# Protocol: PMNL and monocytes were isolated from human peripheral blood of adult healthy volunteers, with consent, obtained from the Institute of Transfusion Medi-cine, University Hospital Jena (Germany). PMNL were immediately isolated by dextran sedi-mentation, centrifugation on Nycoprep cushions, and hypotonic lysis of erythrocytes, as described. PMNL viability was analyzed by trypan blue exclusion with a Vi-cell counter (Beckmann Coulter GmbH, Krefeld). HEK-293 cells were grown in DMEM/High Glucose (4.5 g/L) medium supplemented with heat-inactivated fetal calf serum (FCS, 10 %, vv_1), 100 U/mLpenicillin, and 100 µg/mL streptomycin at 37 °C in a 5 % CO2 incubator. HEK-293 cells were stably transfected with 5-LO and FLAP as validated experimental cell-based model for studying the regulation of 5-LO [28]. None of the cell lines used in this study were authenticated.
# Freshly isolated human PMNL (5 × 10^6) were resuspended in 1 mL PBS buffer containing 1 mg/mL glucose (PG buffer). […] After 10 min at 37 °C, the reaction was stopped with 1 mL of methanol for 10 min on ice and LO products formed and released in the supernatants were extracted and analyzed by HPLC. In detail, after centrifugation (800g, 10 min, room temperature) the samples were applied to C-18 solid-phase extraction columns (100 mg; IST, Mid Glamorgan, United Kingdom), preconditioned with 1 mL methanol and 1 mL water. The columns were washed with 1 mL water and 1 mL water/methanol (75/25, vol/vol) and 5-LO metabolites were eluted with 300 μL methanol. The extract was then diluted with 120 μL water, and 100 μL diluted extract were analyzed by HPLC using a C-18 Radial-Pak column (Waters) eluted with methanol/water/acetic acid 75/25/0.1 (vol/vol/vol) at a flow rate of 1.2 mL/min. Amounts of different metabolites were determined by peak area integration. 5-LO products analyzed include LTB4 and its two all-trans isomers, 5(S)-hydroxy-6-trans-8,11,14-cis-eicosatetraenoic acid (5-HETE), and 5(S)-hydroper-oxy-6-trans-8,11,14-cis-eicosatetraenoic acid (5-HpETE). 5-HETE and 5-HpETE coelute as one major peak, and the integration of this peak represented both eicosanoids.
# [3] = target: T2, 12-LO (Homo sapiens, UniProt P18054); experiment: 12-LO product formation in intact human PMNL; type: cell-based; conditions: for IC50: PMNL, 2.5 μM A23187 plus 20 μM AA, read-out: LTC4; for effect on 12-LO activity: at 10 μM
# T2 construct: endogenous in cells; host or cells: human PMNL preparations
# T2 sequence (P18054 1-663): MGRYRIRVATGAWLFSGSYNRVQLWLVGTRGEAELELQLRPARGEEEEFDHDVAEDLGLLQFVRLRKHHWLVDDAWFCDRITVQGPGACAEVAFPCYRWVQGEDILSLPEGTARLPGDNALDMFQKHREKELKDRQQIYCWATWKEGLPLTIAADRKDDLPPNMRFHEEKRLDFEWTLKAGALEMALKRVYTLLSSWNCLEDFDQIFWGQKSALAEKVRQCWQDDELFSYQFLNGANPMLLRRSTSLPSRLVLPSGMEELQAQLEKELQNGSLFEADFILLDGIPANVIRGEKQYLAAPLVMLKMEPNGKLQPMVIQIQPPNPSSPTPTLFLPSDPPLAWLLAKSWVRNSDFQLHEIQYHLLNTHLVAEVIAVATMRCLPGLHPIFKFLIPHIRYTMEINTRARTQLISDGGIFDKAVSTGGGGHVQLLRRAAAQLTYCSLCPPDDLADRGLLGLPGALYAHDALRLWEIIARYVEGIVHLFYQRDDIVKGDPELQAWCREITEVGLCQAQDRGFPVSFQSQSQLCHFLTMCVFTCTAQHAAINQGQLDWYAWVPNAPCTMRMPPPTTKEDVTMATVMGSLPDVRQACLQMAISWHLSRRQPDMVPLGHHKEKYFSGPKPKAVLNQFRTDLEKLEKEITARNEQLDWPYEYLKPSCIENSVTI
# [4] = target: T1, 5-LO; experiment: cell-free 5-LO activity assay with purified human recombinant 5-LO; type: biochemical; set-up: made in house; conditions: for IC50: purified human recombinant 5-LO, 20 μM AA, read-out: Cell-free (IC50 of 5-LO activity); for 5-LO inhibition in the cell free assay: up to 10 μM
# Protocol: 5-LO was expressed in E. coli B121 (DE3) transformed with pT3- 5LO plasmid, and purification of 5-LO was performed as described previously. Briefly, E. coli was lysed in 50 mM tri-ethanolamine/HCl, pH 8.0, 5 mM EDTA, […] soybean trypsin inhibitor, 1 mM phenylmethanesulfonyl fluoride, 1 mM dithiothreitol and 1 mg/mL lysozyme and then sonified (3 × 15 s). The homogenate was then centrifuged at 40,000g for 20 min at 4°C. 5-LO in the supernatant was partially purified by affinity chromatography on an ATP-agarose column (Sigma-Aldrich). Semi-purified 5-LO was diluted in PBS containing EDTA (1 mM) and ATP (1 mM) and immediately used for 5-LO activity assays. Samples were pre-incubated with the test compounds or vehicle (0.1 % DMSO) for 10 min at 4°C. Samples were pre-warmed for 30 s at 37°C, and 2 mM CaCl2 plus the indicated concentrations of AA were added to start 5-LO product formation. The reaction was stopped after 10 min by addition of one volume of ice-cold methanol, and the formed metabolites were analyzed by HPLC. 5- LO products include the all-trans isomers of LTB4 as well as 5-HPETE and its corresponding alcohol 5-HETE.
# [5] = target: 5-lipoxygenase (5-LO); set-up: method as in PMID 31523435; conditions: read-out: IC50 in isolated human neutrophils; cited from earlier work
# [6] = target: 5-lipoxygenase (5-LO); set-up: method as in PMID 31523435; conditions: read-out: IC50 in whole blood; cited from earlier work
# [7] = system: 5-LO; set-up: method as in PMID 23871907; conditions: cited from earlier work
# [8] = system: mPGES-1; set-up: method as in PMID 23871907; conditions: cited from earlier work
# [9] = […] A23187 plus 20 μM AA, 10 min, read-out: Cell-based A23187 + AA (IC50 of 5-LO product formation)
Compound,cytotoxicity on PMNL (LDH levels in the supernatants) [1],"IC50 ([2]; […] A23187, 10 min, read-out: Cell-based A23187 (IC50 of 5-LO product formation)) [nM]","IC50 [2, 9] [nM]",IC50 [3] [nM],effect on 12-LO activity [3],IC50 [4] [nM],5-LO inhibition in the cell free assay [4],IC50 [5] [nM],IC50 [6] [nM],IC50 [7] [nM],IC50 [8] [nM]
"CCCC/C=C\CCCCCCCCCc1cccc(OC(C)=O)c1OC(C)=O [AI, (Z)-1,2-diacetoxy-3-(pentadec-10′-enyl)-benzene]",comparable to those of untreated controls,> 10000,1500 ± 1400,> 10000,no significant effect,> 10000,No significant 5-LO inhibition,,,,
"CCCCCCCCCCCCCCCc1cccc(OC(C)=O)c1OC(C)=O [AS, 1,2-diacetoxy-3-pentadecylbenzene]",comparable to those of untreated controls,,> 10000,> 10000,no significant effect,> 10000,No significant 5-LO inhibition,,,,
"O=C(/C=C/c1ccc(O)c(O)c1)OCCc1ccccc1 [CAPE, Caffeic acid phenethyl ester]",,,,,,,,500,1800,,
CCCCCCCCCCCC1=C(O)C(=O)C=C(O)C1=O [embelin],,,,,,,,,,60,200
